Test results taken from EP4545091A1 (priority 2023, dated 2025).
Counter-ions that a name gives are not always drawn. Bridges are numbered along the chain shown (N, C = ends).

Experiments:
[1] = system: SARS-CoV-2 Wuhan Hu-1 spike; assay: microbe, parasite or virus in culture; format: cell-based; conditions: Severe acute respiratory syndrome coronavirus 2, Caco-2, 48 h, read-out: IC50, SARS-CoV-2 spike-driven entry
[2] = system: VSV-G glycoprotein; format: cell-based
[3] = system: SARS-CoV-2 Omicron BA.5; format: cell-based
[4] = system: SARS-CoV-2 BA.5; format: cell-based
[5] = system: SARS-CoV-2 Wuhan Hu-1 strain; conditions: 48 h
[6] = system: hCoV-NL63; conditions: 48 h
[7] = system: SARS-CoV spike; conditions: 48 h
[8] = system: MERS-CoV spike; conditions: 48 h
[9] = system: Influenza A virus (IAV) H1N1; conditions: virus (IAV, 48 h)

Row | Molecule | IC50 [1] [nM] | entry of VSV-G bearing control pseudoparticles [2] | viral titers two days post infection [3] | reduction of cumulative RNA copy production [4] [%] | replication (RNA copies/ml in supernatants) [4] | IC50 [5] [nM] | IC50 [6] [nM] | IC50 [7] [nM] | IC50 [8] [nM] | IC50 [9] [nM]
1 | CN(C)C(=O)COC(=O)Cc1ccc(OC(=O)c2ccc(NC(=N)N)cc2)cc1 [Camostat mesylate] | 70 | – | – | – | – | – | – | – | – | –
2 | VAACNLPIVRGPCRAFIQLWAFDAVKGKCVLFPYGGCQGNGNKFYSEKECREYCGVPGDGD (disulfide 4-54, 13-37, 29-50) [Trypstatin] | – | did not affect entry | strongly reduced viral titers | > 99.9 | almost entirely prevented replication | 26 | 190 | 31 | 78 | 222
